Test results: US20140142177A1, “TOPICAL ORGANIC ACID SALT COMPOSITIONS SUITABLE FOR TREATING INFECTIONS” (priority 2009, published 2014)

System: T. rubrum
Test: Demonstration of synergistic activity, CLSI Reference Method 38-A2, growth at combined dilutions
Type: cell-based, Trichophyton rubrum
Design: key to growth of T. rubrum: N=negative growth; P=positive growth
Conditions: for concentration at which negative growth was shown, individually: T. rubrum, tested individually
Experimental: This method is the gold standard used in measuring the antifungal susceptibility of filamentous fungi that cause invasive infections. Fungal colonies are grown on potato glucose agar (PGA). One colony is picked and grown in Sabouraud glucose broth (SGB) at 24° C. for 3 days in the presence of test compound. Microdilution trays are incubated at 24° C., and are read after 5 days of culture. Turbidity in the microdilution wells is scored with the aid of a reading mirror and compared with that of the growth control. A numerical score from 0 to 4 is given to each well using the following scale: 0=optically clear or absence of growth, 1=slight growth (25% of growth control), 2=prominent reduction in growth (50% of growth control), 3=slight reduction in growth (75% of growth control), 4=no reduction in growth.

## CCC(=O)[O-].CCC(=O)[O-].[Zn+2] [Formulation F9, zinc propionate]
F9 0.004X alone
  growth of T. rubrum: P 0.004X
F9 0.007X alone
  growth of T. rubrum: P 0.007X
F9 0.015X alone
  growth of T. rubrum: P 0.015X
F9 0.03X alone
  growth of T. rubrum: N 0.03X
F9 0.06X alone
  growth of T. rubrum: N 0.06X
F9 0.125X alone
  growth of T. rubrum: N 0.125X
F9 0.25X alone
  growth of T. rubrum: N 0.25X
  concentration at which negative growth was shown, individually: 0.03 times the initial concentration

## CC(=O)[O-].[Na+] [Formulation F14, sodium acetate]
F14 0.004X alone
  growth of T. rubrum: P 0.004X
F14 0.007X alone
  growth of T. rubrum: P 0.007X
F14 0.015X alone
  growth of T. rubrum: P 0.015X
F14 0.03X alone
  growth of T. rubrum: P 0.03X
F14 0.06X alone
  growth of T. rubrum: P 0.06X
F14 0.125X alone
  growth of T. rubrum: N 0.125X
F14 0.25X alone
  growth of T. rubrum: N 0.25X
  concentration at which negative growth was shown, individually: 0.125 times the initial concentration

## O=C[O-].[Na+] [Formulation F12, sodium formate]
F12 0.004X alone
  growth of T. rubrum: P 0.004X
F12 0.007X alone
  growth of T. rubrum: P 0.007X
F12 0.015X alone
  growth of T. rubrum: P 0.015X
F12 0.03X alone
  growth of T. rubrum: P 0.03X
F12 0.06X alone
  growth of T. rubrum: N 0.06X
F12 0.125X alone
  growth of T. rubrum: N 0.125X
F12 0.25X alone
  growth of T. rubrum: N 0.25X
  concentration at which negative growth was shown, individually: 0.06 times the initial concentration

## O=C([O-])c1ccccc1.[Na+] [Formulation F11, sodium benzoate]
F11 0.004X alone
  growth of T. rubrum: P 0.004X
F11 0.007X alone
  growth of T. rubrum: P 0.007X
F11 0.015X alone
  growth of T. rubrum: P 0.015X
F11 0.03X alone
  growth of T. rubrum: N 0.03X
F11 0.06X alone
  growth of T. rubrum: N 0.06X
F11 0.125X alone
  growth of T. rubrum: N 0.125X
F11 0.25X alone
  growth of T. rubrum: N 0.25X
  concentration at which negative growth was shown, individually: 0.03 times the initial concentration
